Results from patent publication US20110020457A1, “POLYMER-SURFACTANT NANOPARTICLES FOR SUSTAINED RELEASE OF COMPOUNDS” (Wayne State University, priority 2006, published 2011).
Entries after “also recorded” stand apart in the source; their conditions may differ. Read-outs that look alike come from different tables or passages of the source.

Key:
[1] = cited from earlier work
[2] = also after multiple dosing; cited from earlier work
[3] = pH 7.4
Description: In vitro release studies: In vitro release of nanoparticle-encapsulated drug was determined under sink conditions. The term “sink conditions” refers to release conditions in which the volume of the buffer used is sufficient to dissolve all of the drug present in the delivery system. Such conditions are used to assure that the amount of drug released is not limited by the degree of solubility in the buffer or solvent used. Nanoparticles (˜5 mg) were dispersed in 0.5 ml of phosphate-buffered saline (PBS, pH 7.4, 0.15M) and suspended in DispoDialyzer® (10 kDa MWCO, Pierce) dialysis tubes. These were then placed in a 15-ml centrifuge tube containing 10 ml of PBS. The whole assembly was shaken at 100 rpm and 37.0±0.5° C. in an orbital shaker (Brunswick Scientific, C24 incubator shaker, NJ). […] Drug concentration in the release samples was determined as in drug loading determinations. Stability of different drugs under in vitro release conditions was determined and the drug release profile was corrected for degradation, if any.
Initially, the stability of these drugs under the release conditions (PBS, pH 7.4 and 37° C.) were investigated.

MCF-7 cells [4] = experiment: Cytotoxicity in drug-sensitive cells, MTS assay (Example 5); type: cell-based, Human; details: doxorubicin in solution
Description: (§1) For cytotoxicity studies, NCI-ADR/RES or MCF-7 cells were seeded in 96-well plates at a seeding density of 5000-10000 cells per well per 0.1 mL of medium and allowed to attach overnight. […] Untreated cells and empty nanoparticles were used as controls. […] Cytotoxicity was determined over a period of 10 days using a commercially available MTS assay (Promega). Results were analyzed by using an ANOVA. Differences were considered significant at P<0.05.

[5] = tested on: JC tumors (doxorubicin-resistant mammary adenocarcinoma); experiment: Tumor growth after combination PDT and chemotherapy in drug-resistant tumor; type: in vivo, female Balb/c mice; details: single i.v. dose, 4 mg/kg doxorubicin
Description: FIG. 16. Nanoparticle-mediated combination PDT and chemotherapy overcame tumor drug resistance in vivo. […] About twenty four hours after treatment administration, tumors were exposed to light of 665 nm wavelength (50 J/cm^2). Animals were then monitored for tumor growth. The results are shown as percent increase in tumor volume as a function of time after treatment (days), with the various treatment protocols.
Nanoparticle-mediated combination PDT-chemotherapy inhibited drug-resistant tumor growth. The in vivo efficacy of nanoparticle-mediated combination chemo- and photodynamic therapy was studied in a mouse model of drug-resistant tumor. Drug-resistant JC tumors (doxorubicin-resistant mammary adenocarcinoma) grown subcutaneously in female Balb/c mice were used in these experiments. Mice were administered a single i.v. dose of the different treatments. […] About 24 hrs after treatment administration, tumors were exposed to light of 665 nm wavelength (50 J/cm^2). Animals were then monitored for tumor growth.

NCI-ADR/RES cells [6] = experiment: Intracellular distribution of doxorubicin by fluorescence microscopy; type: cell-based; details: 2.5 μg/mL doxorubicin, 2 h
Description: At the end of the treatment period, cells were washed three times with cold PBS and then lysed using 100 μL of cell culture lysis reagent (CCLR; Promega). The protein content of the cell lysates was determined using the Pierce (Rockford, Ill.) BCA protein assay. Cell lysates were then mixed with 300 μL of methanol and incubated at 37° C. for 6 h at 100 rpm. Samples were centrifuged at 14 000 rpm for 10 min at 4° C. The concentration of rhodamine in the methanolic extract was determined by HPLC as described before. Data were expressed as rhodamine accumulation normalized to total cell protein. For fluorescence microscopy, the uptake and intracellular distribution of doxorubicin in NCI-ADR/RES cells were determined qualitatively using fluorescence microscopy. Cells ([…]) were seeded on coverslips placed in 35 mm dishes.
At 2 h post-treatment, cells were rinsed with drug-free medium and incubated with 75 nM Lysotracker Green (Invitrogen) for 30 min. Cells were then washed and counterstained with DAPI (4′,6-diamidino-2-phenylindole, Invitrogen). Images were captured with a BX60 Olympus fluorescence microscope. Images captured using red, blue, and green filters were overlaid to determine localization and association of doxorubicin-associated red fluorescence in the nucleus and endolysosomes, respectively.

NCI-ADR/RES cells [7] = experiment: Cytotoxicity in drug-resistant cells, MTS assay (Example 5); type: cell-based
Description: as §1

ROS = experiment: Nanoparticle-mediated ROS generation ex vitro (APF fluorescence); details: photo-activated
Description: PBS and empty nanoparticles were used as negative controls. To determine the effect of dose of light on the amount of ROS generated, above samples were photo-activated with 10 consecutive doses of light (1200 mJ/cm^2 per dose) measuring fluorescence after each illumination. […] Experiments performed as above but without light irradiation were used as light negative controls.

MCF-7 cells [8] = experiment: Cytotoxicity of methylene blue PDT; details: 0.3 or 0.6 μM, no light

For `CCCCC(CC)COC(=O)CC(C(=O)OCC(CC)CCCC)S(=O)(=O)[O-].[Na+]` (stereo not drawn) [AOT, dioctylsodium sulfosuccinate], the pKa ([1]; sulfonic group) is given as less than 1 and the “Elimination and accumulation in the body” value [2] is given as “easily removed from the body through renal elimination, and does not accumulate”.
In the case of `Clc1cccc(Cl)c1N=C1NCCN1` [Clonidine], the “Stability under the release conditions” value [3] is reported as “stable”.
In the case of `O=C(O)Cc1ccccc1Nc1c(Cl)cccc1Cl` [Diclofenac, diclofenac sodium], the “Stability under the release conditions” value [3] is reported as “stable”.
In the case of `COc1cccc2c1C(=O)c1c(O)c3c(c(O)c1C2=O)C[C@@](O)(C(=O)CO)C[C@@H]3O[C@H]1C[C@H](N)[C@H](O)[C@H](C)O1` [Doxorubicin], the “Cytotoxicity in drug-sensitive cells” value (MCF-7 cells [4]) is reported as “dose-dependent cytotoxicity”, the “Stability under the release conditions” value [3] is reported as “biphasic, first-order degradation profile” and the “Therapeutic effect on tumor growth” value [5] is reported as “did not show a significant therapeutic effect”. For the same compound, the “Doxorubicin in nuclei of cells” value (NCI-ADR/RES cells [6]) was “No or insignificant doxorubicin fluorescence”, the “Intracellular distribution of doxorubicin” value (NCI-ADR/RES cells [6]; listed as Free doxorubicin) was “diffuse distribution within the cells, with a significant fraction appearing in vesicles located near the cell membrane; also recorded: present near the cell surface” and the “Concentration required to induce cytotoxicity” value (NCI-ADR/RES cells [7]; doxorubicin in solution, drug-resistant cells) was greater than 50 µg/mL. For the same compound, the pKa [1] was roughly 8.2 and the Ionized fraction ([1]; pH 7.4) was “about 86%”.
In the case of `COc1ccc(CCN(C)CCCC(C#N)(c2ccc(OC)c(OC)c2)C(C)C)cc1OC` (stereo not drawn) [Verapamil], the “Effect on resistance to doxorubicin” value (NCI-ADR/RES cells [7]; verapamil 23.0 μg/mL with doxorubicin 0.4 μg/mL in solution) is reported as “reversed the resistance to doxorubicin”.
For `CN(C)c1ccc2nc3ccc(=[N+](C)C)cc-3sc2c1` [methylene blue, Methylene blue], the “Increase in fluorescence at 0.6 μM compared to 0.3 μM” value (ROS) was 2 fold and the “Cytotoxic effect without light-activation” value (MCF-7 cells [8]) was “no significant effect”.
